For this assay, the system named is β-TrCP1 and β-TrCP2. The assay can be described thus: NRF2/HO-1 induction after lentiviral silencing of β-TrCP1/2 in Keap1−/− MEFs. The class given is cell-based, mouse. Here is the method:
In vitro kinase assay and in vitro ubiquitination. For the recognition and degradation of NRF2 by βTrCP, the serines 335, 338, 342 and 347 located at the Neh6 domain of NRF2 need to be previously phosphorylated by the kinase GSK-3β (FIG. 1). Therefore, to obtain the phosphorylated substrate, 20 ng recombinant NRF2-DETGE was used together with 0.5 μg of recombinant GSK-3β incubated at 30° C. for 60 min. The result was analyzed by western blot. After confirming the existence of phosphorylation in the residues of interest, an in vitro ubiquitination assay was carried out using the recombinant proteins that make up the E3 ubiquitin ligase complex. The ubiquitination reaction was carried out using: ATP (2 mM), […], SCF-βTrCP (450 nM), and non-phosphorylated or phosphorylated NRF2 (20 ng), in a specific ubiquitination buffer (30 mM Tris pH 7.6, 5 mM MgCl2, 2 mM dithiothreitol, 100 mM NaCl). Before the ubiquitination reactions, the E1, Cdc34b, and ubiquitin components were incubated together for 2 min to allow the E2 thioester bond to form. The reactions were incubated for 1 hour at 25° C. in the presence or absence of PHAR (3 μM) in order to determine whether or not PHAR inhibits ubiquitination by βTrCP. […] The PI3K/AKT signaling pathway is inhibited, and therefore GSK-3β is activated with the PI3K inhibitor, LY294002. As a result, NRF2 is phosphorylated by GSK-3β and marked for degradation by means of interaction with β-TrCP. Therefore, if PHAR is capable of inhibiting βTrCP-NRF2 interaction, the NRF2 levels will remain stable independently of the activation and phosphorylation by GSK-3β. The obtained result corroborates this. • 3. Using lentiviral silencing of the two isoforms described for β-TrCP (β-TrCP1 and β-TrCP2) in MEFs originating from Keap1 knockout mice (Keap′1−/−).
FIG. 6. PHAR increases NRF2 protein levels in a β-TrCP-dependent manner. A) In vitro phosphorylation of recombinant NRF2-DETGE by recombinant GSK-3β. Phosphorylation at residues 335, 338, 342 and 347 was analyzed by western blot. B) In vitro ubiquitination of NRF2 or pNRF2 by the βTrCP complex. NRF2 and pNRF2 (20 ng) were incubated at 25° C. for 1 h with purified ubiquitin, E1/cdc34b, βTrCP/Skp1 and Cull/Rbx1 as indicated in the presence or absence of PHAR […] or vehicle (DMSO). Polyubiquitinated NRF2 was detected by western blot with anti-ubiquitin antibody. […] E), densitometric analysis of NRF2 protein levels of the representative immunoblot of (D), expressed as a ratio of NRF2/GAPDH. […] G), densitometric analysis of NRF2 and HO1 protein levels of the representative immunoblots of (F), expressed as a ratio of NRF2 and HO1/GAPDH. […]

Entries after “also recorded” stand apart in the source; their conditions may differ.

Results on 1 compound are retold here after US12590100B2, “Tetrahydro-spiroindoline-pyrrolopyrrole-triones inhibitors of the NRF2-β-TrCP interaction for use in the treatment of fatty liver disease” (Universidad Autonoma De Madrid, priority 2021, dated 2026).

Consider `O=C1[C@@H]2[C@H](Cc3c[nH]c4ccccc34)N[C@]3(C(=O)Nc4ccc(Cl)cc43)[C@@H]2C(=O)N1c1ccc2c(c1)OCCO2` [PHAR], for which, for the setting “PHAR 10 μM”, the “HO-1 accumulation in sh β-TrCP1/2 cells compared with shCTRL” value was “considerably lower; also recorded: lower in cells lacking β-TrCP1/2”; the “Hmox1 and Nqo1 mRNA induction in sh β-TrCP1/2 cells” value was “induction generated by PHAR is lost”. Moreover, the “NRF2 levels in shCTRL cells” value (PHAR 10 μM, 2, 4, 8 h) was “increase in NRF2 levels from 2 h to 8 h”. In addition, the “NRF2 accumulation in sh β-TrCP1/2 cells compared with shCTRL” value (silencing about 50%, PHAR 10 μM) is “considerably lower; also recorded: significantly lower compared with shCTRL cells”.
